Results from ChEMBL document CHEMBL3137667, “[Drug-induced liver injury; fourteenth updated edition of the bibliographic database of liver injuries and related drugs]” (Gastroenterol Clin Biol, 2004).

What was measured:
[1] = Highest frequency of moderate liver toxicity observed during clinical trials, expressed as a percentage. [column '% BIOL' in source]; details: human
[2] = Highest frequency of acute liver toxicity observed during clinical trials, expressed as a percentage. [column '% AIGUE' in source]; details: human
[3] = human, serum
[4] = human, serum; remark: listed apart in the source
[5] = human
[6] = human; remark: listed apart in the source
[7] = human; remark: listed apart in the source
[8] = human, serum, 4383 h
[9] = human; remark: listed apart in the source
[10] = human; remark: listed apart in the source
[11] = human; remark: listed apart in the source
[12] = human; remark: listed apart in the source
[13] = human; remark: listed apart in the source
[14] = human; remark: listed apart in the source
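Throughout, for Hepatotoxicity (association with vascular disease): count of indexed literature references reporting vascular liver injury in humans, e.g. peliosis hepatitis, hepatic veno-occlusive disease or Budd-Chiari syndrome.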
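Throughout, for Hepatotoxicity (benign tumour): value is a count of indexed literature references citing a benign tumour confirmed by histopathology.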
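Throughout, for Hepatotoxicity (choleostasis): human cholestatic liver injury, shown by histopathology or by peak ALT or AST elevation over alkaline phosphatase ratio below 2, value counts indexed literature reports.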
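Throughout, for Hepatotoxicity (chronic liver disease): chronic liver injury confirmed by histopathology or persistently raised serum aminotransferase activity beyond 6 months, value given as the count of indexed literature references.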
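Throughout, for Hepatotoxicity (cirrhosis): value is a count of indexed literature references reporting cirrhosis confirmed by histopathology.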
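Throughout, for Hepatotoxicity (cytolytic): human cytolytic liver injury, shown by histopathology or by a ratio above 5 of peak ALT or AST elevation to alkaline phosphatase elevation, value counts indexed references.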
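Throughout, for Hepatotoxicity (granulomatous hepatitis): value is a count of indexed literature references reporting granulomatous liver disease confirmed by histopathology.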
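Throughout, for Hepatotoxicity (malignant tumour): malignant tumour confirmed by histopathology, value gives the count of indexed literature references reporting it.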
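Throughout, for Hepatotoxicity (severe hepatitis): human clinical data: severe hepatitis, meaning potentially life-threatening liver failure or clinically observed cases, the value counts how many indexed literature references report it.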
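Throughout, for Hepatotoxicity (steatosis): steatosis confirmed by histopathology, value is the count of indexed references.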

| SMILES | Hepatotoxicity (moderate) [1] [%] | Hepatotoxicity (acute) [2] [%] | Hepatotoxicity (moderate) [3] | Hepatotoxicity (acute) [4] | Hepatotoxicity (cytolytic) [5] | Hepatotoxicity (choleostasis) [6] | Hepatotoxicity (severe hepatitis) [7] | Hepatotoxicity (chronic liver disease) [8] | Hepatotoxicity (cirrhosis) [9] | Hepatotoxicity (granulomatous hepatitis) [10] | Hepatotoxicity (association with vascular disease) [11] | Hepatotoxicity (steatosis) [12] | Hepatotoxicity (malignant tumour) [13] | Hepatotoxicity (benign tumour) [14] |
| --- | --- | --- | --- | --- | --- | --- | --- | --- | --- | --- | --- | --- | --- | --- |
| CCCN1CCO[C@@H]2c3cc(O)ccc3CC[C@H]21 [NAXAGOLIDE] | 11.1 | 0 | 1 | 0 | 0 | 0 | 0 | 0 | 0 | 0 | 0 | 0 | 0 | 0 |
| NCC1CC(=O)N(Cc2ccccc2)C1 (stereo not drawn) [NEBRACETAM] | 11.1 | 0 | 1 | 0 | 0 | 0 | 0 | 0 | 0 | 0 | 0 | 0 | 0 | 0 |
| CCCc1c2oc(C(=O)O)cc(=O)c2cc2c(=O)cc(C(=O)O)n(CC)c12 [NEDOCROMIL] | 3.3 | 0 | 2 | 0 | 0 | 0 | 0 | 0 | 0 | 0 | 0 | 0 | 0 | 0 |
| CCN[C@@H]1C[C@H](N)[C@@H](O[C@H]2OC(CN)=CC[C@H]2N)[C@H](O)[C@H]1O[C@H]1OC[C@](C)(O)[C@H](NC)[C@H]1O [NETILMICIN] | 29.4 | 0 | 5 | 0 | 0 | 0 | 0 | 0 | 0 | 0 | 0 | 0 | 0 | 0 |
| O=C(OCC(COC(=O)c1cccnc1)(COC(=O)c1cccnc1)COC(=O)c1cccnc1)c1cccnc1 [NICERITROL] | 5 | 0 | 1 | 0 | 0 | 0 | 0 | 0 | 0 | 0 | 0 | 0 | 0 | 0 |
| COC(=O)C1=C(C#N)NC(C)=C(C(=O)OC(C)C)C1c1cccc([N+](=O)[O-])c1 (stereo not drawn) [NILVADIPINE] | 6.3 | 0 | 3 | 0 | 0 | 0 | 0 | 0 | 0 | 0 | 0 | 0 | 0 | 0 |
| Cc1ncc(CNC(=O)N(CCCl)N=O)c(N)n1 [NIMUSTINE] | 3.6 | 0 | 2 | 0 | 0 | 0 | 0 | 0 | 0 | 0 | 0 | 0 | 0 | 0 |
| O=C1NCCN1c1ncc([N+](=O)[O-])s1 [NIRIDAZOLE] | 0 | 0 | 2 | 0 | 0 | 0 | 0 | 0 | 0 | 0 | 0 | 0 | 0 | 0 |
| COC(=O)C1=C(C)NC(C)=C(C(=O)OCC(C)C)C1c1ccccc1[N+](=O)[O-] (stereo not drawn) [NISOLDIPINE] | 12.5 | 0 | 1 | 0 | 0 | 0 | 0 | 0 | 0 | 0 | 0 | 0 | 0 | 0 |
| C[C@]1(O)CC[C@H]2[C@@H]3CCC4=CC(=O)CC[C@@H]4[C@H]3CC[C@@]21C [NORMETHANDRONE] | 0 | 0 | 0 | 2 | 0 | 1 | 0 | 0 | 0 | 0 | 0 | 0 | 0 | 0 |
| COC(=O)C[C@](O)(CCCC(C)(C)O)C(=O)O[C@@H]1C(OC)=C[C@]23CCCN2CCc2cc4c(cc2[C@H]13)OCO4 [OMACETAXINE MEPESUCCINATE] | 15 | 0 | 3 | 0 | 0 | 0 | 0 | 0 | 0 | 0 | 0 | 0 | 0 | 0 |
| CCOC(=O)C1=C[C@@H](OC(CC)CC)[C@H](NC(C)=O)[C@@H](N)C1 [OSELTAMIVIR] | 0 | 0 | 0 | 1 | 0 | 0 | 0 | 0 | 0 | 0 | 0 | 0 | 0 | 0 |
